Measured values: US20230173032A1, “Treatment of Hyperuricemia” (Frederiksberg Hospital, priority 2020, published 2023)

What was measured:
[1] = LOSE-IT trial (NCT02905864): serious adverse events and deaths; format: in vivo, human; conditions: liraglutide 3 mg/day, 52 weeks
Description: Methods: In the LOSE-IT trial (NCT02905864), a randomised, double-blinded, placebo-controlled, parallel group, single-centre trial, 156 overweight and obese individuals with knee joint pain, were offered an initial 8-week intensive diet intervention (week −8 to 0) on Cambridge Weight Plan (800-1000 kcal/day) followed by a weight loss maintenance period in which participants were randomised to either liraglutide 3 mg/day or placebo for 52 weeks. Subjects with type 1 diabetes or type 2 diabetes with glucose-lowering drugs other than metformin were excluded from the study.

[2] = Semaglutide case studies: treatment emergent adverse events; format: in vivo, human
Description: Two patients with chronic gout and no diabetes where treated with another type of GLP-1 analog: Semaglutide subcutaneous (sc) once weekly.
Person, gout since more than 3 years no diabetes. Received 0.25 mg weekly for 6 weeks and then 0.5 mg twice.
Person, gout since more than 4 years, no diabetes. Received 0.25 mg sc for 6 weeks and 0.5 mg sc for 4 weeks.

Row | SMILES | deaths [1] | participants who experienced serious adverse events [1] | treatment emergent adverse events, Patient 1 ([2]; 8 weeks treatment, nausea during the first 2 weeks) | treatment emergent adverse events, Patient 2 ([2]; 10 weeks treatment)
1 | CCCCCCCCCCCCCCCC(=O)N[C@@H](CCC(=O)NCCCC[C@H](NC(=O)[C@H](C)NC(=O)[C@H](C)NC(=O)[C@H](CCC(N)=O)NC(=O)CNC(=O)[C@H](CCC(=O)O)NC(=O)[C@H](CC(C)C)NC(=O)[C@H](Cc1ccc(O)cc1)NC(=O)[C@H](CO)NC(=O)[C@H](CO)NC(=O)[C@@H](NC(=O)[C@H](CC(=O)O)NC(=O)[C@H](CO)NC(=O)[C@@H](NC(=O)[C@H](Cc1ccccc1)NC(=O)[C@@H](NC(=O)CNC(=O)[C@H](CCC(=O)O)NC(=O)[C@H](C)NC(=O)[C@@H](N)Cc1cnc[nH]1)[C@@H](C)O)[C@@H](C)O)C(C)C)C(=O)N[C@@H](CCC(=O)O)C(=O)N[C@@H](Cc1ccccc1)C(=O)N[C@H](C(=O)N[C@@H](C)C(=O)N[C@@H](Cc1c[nH]c2ccccc12)C(=O)N[C@@H](CC(C)C)C(=O)N[C@H](C(=O)N[C@@H](CCCNC(=N)N)C(=O)NCC(=O)N[C@@H](CCCNC(=N)N)C(=O)NCC(=O)O)C(C)C)[C@@H](C)CC)C(=O)O [liraglutide, Arg34, Lys26-(N-epsilon-(gamma-L-glutamyl(N-alfa-hexadecanoyl)))-GLP-I(7-37)] | no deaths were observed | Four |  | 
2 | CC[C@H](C)[C@H](NC(=O)[C@H](Cc1ccccc1)NC(=O)[C@H](CCC(=O)O)NC(=O)[C@H](CCCCNC(=O)COCCOCCNC(=O)COCCOCCNC(=O)CC[C@H](NC(=O)CCCCCCCCCCCCCCCCC(=O)O)C(=O)O)NC(=O)[C@H](C)NC(=O)[C@H](C)NC(=O)[C@H](CCC(N)=O)NC(=O)CNC(=O)[C@H](CCC(=O)O)NC(=O)[C@H](CC(C)C)NC(=O)[C@H](Cc1ccc(O)cc1)NC(=O)[C@H](CO)NC(=O)[C@H](CO)NC(=O)[C@@H](NC(=O)[C@H](CC(=O)O)NC(=O)[C@H](CO)NC(=O)[C@@H](NC(=O)[C@H](Cc1ccccc1)NC(=O)[C@@H](NC(=O)CNC(=O)[C@H](CCC(=O)O)NC(=O)C(C)(C)NC(=O)[C@@H](N)Cc1cnc[nH]1)[C@@H](C)O)[C@@H](C)O)C(C)C)C(=O)N[C@@H](C)C(=O)N[C@@H](Cc1c[nH]c2ccccc12)C(=O)N[C@@H](CC(C)C)C(=O)N[C@H](C(=O)N[C@@H](CCCNC(=N)N)C(=O)NCC(=O)N[C@@H](CCCNC(=N)N)C(=O)NCC(=O)O)C(C)C [Semaglutide] |  |  | No treatment emergent adverse events were experienced apart from slight nausea | No treatment emergent adverse events were experienced apart from slight constipation
